Measured values as given in ChEMBL document CHEMBL1150727, “New cytotoxic aristolactams from Pararistolochia flos-avis” (1987).
Converted amounts (≈) assume the structure as drawn. The source made the active and inactive calls. The rule behind the calls is not given here.

Experiments:
[1] = tested on: P388; experiment: Cytotoxicity against mouse P388 cells; type: functional
[2] = tested on: KB; experiment: Cytotoxicity against human KB cells; type: functional
[3] = read-out: ED50 (the source's name)

Row | SMILES | Activity [1] | Activity [2] | EC50 [1, 3] | EC50 [2, 3]
1 | COc1c(O)c(OC)c2c3c(cc4ccccc42)NC(=O)c13 | inactive | inactive |  | 
2 | COc1cccc2c1cc1c3c(cc4c(c32)OCO4)C(=O)N1 | inactive | inactive |  | 
3 | COc1cc2c3c(cc4ccccc4c3c1O)NC2=O | inactive | inactive |  | 
4 | COc1c(O)cc2c3c(cc4ccccc4c13)NC2=O [ARISTOLACTAM AII] |  |  | 3.2 µg/mL (≈ 12.1 µM) | 2.1 µg/mL (≈ 7.92 µM)
